ChEMBL document CHEMBL1201862, “PubChem BioAssay data set” (2004)
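Dose response: 5 concentrations. Exposure: 48 h. Format: 96-well plates. Endpoint: linear interpolation; highest concentration if not reached. Abbreviation: GI50, concentration required for 50% inhibition of growth.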 Activity calls are given as the source filed them. Rule as the data show it: active = GI50 up to about 1.1 µM and inactive = higher.

What was measured:
Experiment in all cases: NCI anticancer screen, dose series, 48 h
[1] = system: 786-0
[2] = system: A549
[3] = system: ACHN
[4] = system: CCRF-CEM
[5] = system: COLO 205
[6] = system: DLD-1
[7] = system: DMS-273
[8] = system: EKVX
[9] = system: HCC 2998
[10] = system: HCT-116
[11] = system: HCT-15
[12] = system: HL-60
[13] = system: HOP-18
[14] = system: HOP-62
[15] = system: HOP-92
[16] = system: HT-29
[17] = system: IGROV-1
[18] = system: K562
[19] = system: KM-20L2
[20] = system: KM12
[21] = system: LXFL 529
[22] = system: M14
[23] = system: M19-MEL
[24] = system: MOLT-4
[25] = system: Malme-3M
[26] = system: NCI-H226
[27] = system: NCI-H23
[28] = system: NCI-H460
[29] = system: NCI-H522
[30] = system: OVCAR-3
[31] = system: OVCAR-4
[32] = system: OVCAR-5
[33] = system: OVCAR-8
[34] = system: RPMI-8226
[35] = system: RXF 393
[36] = system: RXF 631
[37] = system: SF-268
[38] = system: SF-295
[39] = system: SF-539
[40] = system: SK-MEL-28
[41] = system: SK-MEL-2
[42] = system: SK-MEL-5
[43] = system: SK-OV-3
[44] = system: SN12C
[45] = system: SNB-19
[46] = system: SNB-75
[47] = system: SNB-78
[48] = system: SR
[49] = system: SW-620
[50] = system: U-251
[51] = system: UACC-257
[52] = system: UACC-62
[53] = system: UO-31
[54] = system: A498
[55] = system: CAKI-1
[56] = system: DMS-114
[57] = system: LOX IMVI
[58] = system: TK-10
[59] = system: XF498

Cc1ccccc1N(CCC#N)C1=NN(C(=O)CC(=O)Nc2ccccc2)C(c2ccccc2)C1 (configuration not stated)
GI50 [1]: > 100 µM (inactive)
GI50 [2]: > 100 µM (inactive)
GI50 [3]: > 100 µM (inactive)
GI50 [4]: > 100 µM (inactive)
GI50 [5]: > 100 µM (inactive)
GI50 [6]: > 100 µM (inactive)
GI50 [7]: > 100 µM (inactive)
GI50 [8]: > 100 µM (inactive)
GI50 [9]: > 100 µM (inactive)
GI50 [10]: > 100 µM (inactive)
GI50 [11]: > 100 µM
GI50 [12]: > 100 µM (inactive)
GI50 [13]: > 100 µM (inactive)
GI50 [14]: > 100 µM (inactive)
GI50 [15]: > 100 µM (inactive)
GI50 [16]: > 100 µM (inactive)
GI50 [17]: > 100 µM (inactive)
GI50 [18]: > 100 µM (inactive)
GI50 [19]: > 100 µM (inactive)
GI50 [20]: > 100 µM (inactive)
GI50 [21]: > 100 µM (inactive)
GI50 [22]: > 100 µM (inactive)
GI50 [23]: > 100 µM (inactive)
GI50 [24]: > 100 µM (inactive)
GI50 [25]: > 100 µM (inactive)
GI50 [26]: > 100 µM (inactive)
GI50 [27]: > 100 µM (inactive)
GI50 [28]: > 100 µM (inactive)
GI50 [29]: > 100 µM (inactive)
GI50 [30]: > 100 µM (inactive)
GI50 [31]: > 100 µM (inactive)
GI50 [32]: > 100 µM (inactive)
GI50 [33]: > 100 µM (inactive)
GI50 [34]: > 100 µM (inactive)
GI50 [35]: > 100 µM (inactive)
GI50 [36]: > 100 µM (inactive)
GI50 [37]: > 100 µM (inactive)
GI50 [38]: > 100 µM (inactive)
GI50 [39]: > 100 µM (inactive)
GI50 [40]: > 100 µM (inactive)
GI50 [41]: > 100 µM (inactive)
GI50 [42]: > 100 µM (inactive)
GI50 [43]: > 100 µM (inactive)
GI50 [44]: > 100 µM (inactive)
GI50 [45]: > 100 µM (inactive)
GI50 [46]: 35 µM (inactive)
GI50 [47]: 67.9 µM (inactive)
GI50 [48]: 44.1 µM (inactive)
GI50 [49]: > 100 µM (inactive)
GI50 [50]: > 100 µM (inactive)
GI50 [51]: > 100 µM (inactive)
GI50 [52]: > 100 µM (inactive)
GI50 [53]: > 100 µM (inactive)

N#C/C(=C1\OC(=N)C(c2ccc(Cl)cc2Cl)C1=O)c1ccc(Cl)cc1Cl (configuration not stated)
GI50 [1]: > 100 µM (inactive)
GI50 [54]: > 100 µM (inactive)
GI50 [2]: > 100 µM (inactive)
GI50 [3]: > 100 µM (inactive)
GI50 [55]: > 100 µM (inactive)
GI50 [5]: > 100 µM (inactive)
GI50 [6]: > 100 µM (inactive)
GI50 [56]: > 100 µM (inactive)
GI50 [7]: > 100 µM (inactive)
GI50 [8]: 24.2 µM (inactive)
GI50 [10]: > 100 µM (inactive)
GI50 [11]: > 100 µM
GI50 [12]: > 100 µM (inactive)
GI50 [15]: 80.5 µM (inactive)
GI50 [16]: > 100 µM (inactive)
GI50 [17]: > 100 µM (inactive)
GI50 [18]: > 100 µM (inactive)
GI50 [19]: > 100 µM (inactive)
GI50 [57]: > 100 µM (inactive)
GI50 [21]: > 100 µM (inactive)
GI50 [22]: > 100 µM (inactive)
GI50 [23]: > 100 µM (inactive)
GI50 [24]: > 100 µM (inactive)
GI50 [25]: > 100 µM (inactive)
GI50 [26]: > 100 µM (inactive)
GI50 [27]: > 100 µM (inactive)
GI50 [29]: > 100 µM (inactive)
GI50 [30]: > 100 µM (inactive)
GI50 [31]: > 100 µM (inactive)
GI50 [32]: > 100 µM (inactive)
GI50 [33]: > 100 µM (inactive)
GI50 [34]: > 100 µM (inactive)
GI50 [35]: > 100 µM (inactive)
GI50 [36]: > 100 µM (inactive)
GI50 [37]: > 100 µM (inactive)
GI50 [38]: > 100 µM (inactive)
GI50 [39]: > 100 µM (inactive)
GI50 [40]: > 100 µM (inactive)
GI50 [41]: > 100 µM (inactive)
GI50 [42]: > 100 µM (inactive)
GI50 [43]: > 100 µM (inactive)
GI50 [44]: > 100 µM (inactive)
GI50 [45]: > 100 µM (inactive)
GI50 [46]: 58.9 µM (inactive)
GI50 [47]: > 100 µM (inactive)
GI50 [49]: > 100 µM (inactive)
GI50 [58]: > 100 µM (inactive)
GI50 [51]: > 100 µM (inactive)
GI50 [52]: > 100 µM (inactive)
GI50 [53]: 56.6 µM (inactive)
GI50 [59]: 86.9 µM (inactive)

Cc1cccc(C(C)C)c1NC(=O)/C(Cc1c([N+](=O)[O-])cccc1[N+](=O)[O-])=N/NC(=O)CC#N
GI50 [1]: > 100 µM (inactive)
GI50 [54]: 44.4 µM (inactive)
GI50 [2]: > 100 µM (inactive)
GI50 [3]: > 100 µM (inactive)
GI50 [55]: > 100 µM (inactive)
GI50 [4]: > 100 µM (inactive)
GI50 [5]: > 100 µM (inactive)
GI50 [6]: > 100 µM (inactive)
GI50 [56]: > 100 µM (inactive)
GI50 [7]: > 100 µM (inactive)
GI50 [8]: 7.05 µM (inactive)
GI50 [9]: > 100 µM (inactive)
GI50 [10]: > 100 µM (inactive)
GI50 [11]: > 100 µM
GI50 [12]: > 100 µM (inactive)
GI50 [13]: > 100 µM (inactive)
GI50 [15]: 41.6 µM (inactive)
GI50 [16]: > 100 µM (inactive)
GI50 [17]: > 100 µM (inactive)
GI50 [18]: > 100 µM (inactive)
GI50 [19]: > 100 µM (inactive)
GI50 [20]: > 100 µM (inactive)
GI50 [57]: > 100 µM (inactive)
GI50 [21]: > 100 µM (inactive)
GI50 [22]: > 100 µM (inactive)
GI50 [23]: > 100 µM (inactive)
GI50 [24]: > 100 µM (inactive)
GI50 [25]: > 100 µM (inactive)
GI50 [26]: > 100 µM (inactive)
GI50 [28]: > 100 µM (inactive)
GI50 [29]: > 100 µM (inactive)
GI50 [30]: > 100 µM (inactive)
GI50 [32]: > 100 µM (inactive)
GI50 [35]: > 100 µM (inactive)
GI50 [36]: > 100 µM (inactive)
GI50 [37]: > 100 µM (inactive)
GI50 [38]: > 100 µM (inactive)
GI50 [39]: > 100 µM (inactive)
GI50 [40]: > 100 µM (inactive)
GI50 [41]: > 100 µM (inactive)
GI50 [42]: > 100 µM (inactive)
GI50 [43]: > 100 µM (inactive)
GI50 [45]: > 100 µM (inactive)
GI50 [46]: > 100 µM (inactive)
GI50 [49]: > 100 µM (inactive)
GI50 [58]: 80.9 µM (inactive)
GI50 [52]: > 100 µM (inactive)
GI50 [53]: > 100 µM (inactive)
